Patent US20100074870A1, “Probiotic infant products” (priority 2008, published 2010)

What follows are molecules tested on B. longum AH1206 (assay: Antibiotic sensitivity, minimum inhibitory concentration (MIC)). Conditions: antibiotic against B. longum AH1206; unit not given.

minimum inhibitory concentration (MIC) | SMILES
0.32 | CCC[C@@H]1C[C@@H](C(=O)N[C@@H]([C@H]2O[C@H](SC)[C@H](O)[C@@H](O)[C@H]2O)[C@H](C)Cl)N(C)C1 [clindamycin]
0.38 | Cc1ncc([N+](=O)[O-])n1CCO [metronidazole]

SMILES | minimum inhibitory concentration (MIC)
CN[C@H](CC(C)C)C(=O)N[C@H]1C(=O)N[C@@H](CC(N)=O)C(=O)N[C@H]2C(=O)N[C@H]3C(=O)N[C@H](C(=O)N[C@H](C(=O)O)c4cc(O)cc(O)c4-c4cc3ccc4O)[C@H](O)c3ccc(c(Cl)c3)Oc3cc2cc(c3O[C@@H]2O[C@H](CO)[C@@H](O)[C@H](O)[C@H]2O[C@H]2C[C@](C)(N)[C@H](O)[C@H](C)O2)Oc2ccc(cc2Cl)[C@H]1O [vancomycin] | 0.75
